Test results as given in patent publication US9695155B2, “Herbicidal substituted pyrimidinyloxy benzene compounds” (E. I. DU PONT DE NEMOURS AND COMPANY, priority 2013, dated 2017).

How the values were obtained:
oilseed rape [1] = assay: Test C postemergence; assay type: in vivo, Brassica napus; details: Brassica napus, post-emergence
Procedure, shortened: (§1)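 Plants were kept under greenhouse conditions for 13–15 days following spray. Pre-emergent application went to soil (loam–sand), post-emergent to foliage at 1–4 leaves. Evaluation: visual, percent control against untreated checks.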

barnyardgrass [2] = assay: Test B flooded paddy test; assay type: in vivo, Echinochloa crus-galli; details: Echinochloa crus-galli; Flood, 250 g ai/ha; 0 to 100 scale where 0 is no effect and 100 is complete control; read-out: Plant response rating, Barnyardgrass
Procedure, shortened: (§2)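 Evaluation is visual, against untreated controls, 13 to 15 days after treatment. Before treatment, plants reached the 2-leaf stage; pots were then flooded 3 cm deep, compound was added to the water, and that level was maintained. Ratings run 0 to 100, with 100 meaning complete control.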

large (Lg) crabgrass = assay: Test C postemergence; assay type: in vivo, Digitaria sanguinalis; details: Digitaria sanguinalis, post-emergence
Procedure, shortened: as §1

corn = assay: Test C preemergence; assay type: in vivo, Zea mays; details: Zea mays, pre-emergence, preemergence, scale 0 (no effect) to 100 (complete control), read-out: Corn plant response rating
Procedure, shortened: as §1

barnyardgrass [3] = assay: Test C preemergence; assay type: in vivo, Echinochloa crus-galli; details: Echinochloa crus-galli, pre-emergence
Procedure, shortened: as §1

sedge, umbrella = assay: Test B flooded paddy test; assay type: in vivo, Cyperus difformis; details: Cyperus difformis, Flood, 250 g ai/ha; 0 to 100 scale where 0 is no effect and 100 is complete control; read-out: Plant response rating, Sedge, Umbrella
Procedure, shortened: as §2

waterhemp = assay: Test C postemergence; assay type: in vivo, Amaranthus rudis; details: Amaranthus tuberculatus, post-emergence
Procedure, shortened: as §1

morningglory = assay: Test A preemergence; assay type: in vivo, Ipomoea spp.
Procedure, shortened: (§3)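 Scoring: eye-based comparison with untreated controls, 0 for no effect through 100 for complete control, at about day 10. Treatments: directed soil spray preemergence; foliar spray postemergence on 2–10 cm plants at the one- to two-leaf stage. Medium: loam soil with sand.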

giant foxtail = assay: Test C preemergence; assay type: in vivo, Setaria faberii; details: Setaria faberi, pre-emergence
Procedure, shortened: as §1

velvetleaf [4] = assay: Test C postemergence; assay type: in vivo, Abutilon theophrasti; details: Abutilon theophrasti, post-emergence
Procedure, shortened: as §1

velvetleaf [5] = assay: Test A postemergence; assay type: in vivo, Abutilon theophrasti; details: Abutilon theophrasti, post-emergence, 240 h
Procedure, shortened: as §3

barnyardgrass [6] = assay: Test C postemergence; assay type: in vivo, Echinochloa crus-galli; details: Echinochloa crus-galli, post-emergence
Procedure, shortened: as §1

oilseed rape [7] = assay: Test C preemergence; assay type: in vivo, Brassica napus; details: Brassica napus, pre-emergence
Procedure, shortened: as §1

wheat = assay: Test A preemergence; assay type: in vivo, Triticum aestivum
Procedure, shortened: as §3

soybean = assay: Test C postemergence; assay type: in vivo, Glycine max; details: Glycine max, post-emergence
Procedure, shortened: as §1

[8] = 125 g ai/ha, 0 to 100 scale where 0 is no effect and 100 is complete control

Q: What does the source list for N#Cc1cccc(Oc2ncc(Br)cn2)c1-n1cc(C(F)(F)F)cn1 [Compound 59, 3-[(5-bromo-2-pyrimidinyl)oxy]-2-[4-(trifluoromethyl)-1H-pyrazol-1-yl]benzonitrile]?
A: plant injury at 125 g/ha (oilseed rape [1]; 125 g ai/ha, postemergence, read-out: Plant response rating (0 to 100), Oilseed Rape): 85%; plant injury at 250 g/ha (oilseed rape [1]; 250 g ai/ha, postemergence, read-out: Plant response rating (0 to 100), Oilseed Rape): 95%; plant injury at 31 g/ha (oilseed rape [1]; Postemergence, 31 g ai/ha, scale 0 to 100 (0 no effect, 100 complete control), 13 to 15 days, read-out: Plant response rating, Oilseed Rape): 50%; plant injury at 62 g/ha (oilseed rape [1]; Postemergence, 62 g ai/ha, scale 0 to 100 (0 no effect, 100 complete control), read-out: Plant response rating, Oilseed Rape): 50%; pest or weed control at 250 g/ha (barnyardgrass [2]): 40%; pest or weed control at 125 g/ha (large (Lg) crabgrass; 125 g ai/ha, postemergence, read-out: Plant response rating (0 to 100), Crabgrass, Large): 30%; pest or weed control at 250 g/ha (large (Lg) crabgrass; 250 g ai/ha, postemergence, read-out: Plant response rating (0 to 100), Crabgrass, Large): 40%; pest or weed control at 31 g/ha (large (Lg) crabgrass; Postemergence, 31 g ai/ha, scale 0 to 100 (0 no effect, 100 complete control), 13 to 15 days, read-out: Plant response rating, Crabgrass, Large): 10%; pest or weed control at 62 g/ha (large (Lg) crabgrass; Postemergence, 62 g ai/ha, scale 0 to 100 (0 no effect, 100 complete control), read-out: Plant response rating, Crabgrass, Large): 10%; plant injury at 62 g/ha (corn; 62 g ai/ha): 55%; plant injury at 125 g/ha (corn; 125 g ai/ha): 75%; plant injury at 250 g/ha (corn; 250 g ai/ha): 90%; pest or weed control at 62 g/ha (barnyardgrass [3]; 62 g ai/ha, preemergence, scale 0 (no effect) to 100 (complete control), read-out: Barnyardgrass plant response rating): 100%; pest or weed control at 125 g/ha (barnyardgrass [3]; 125 g ai/ha, preemergence, scale 0 (no effect) to 100 (complete control), read-out: Barnyardgrass plant response rating): 100%; pest or weed control at 250 g/ha (barnyardgrass [3]; 250 g ai/ha, preemergence, scale 0 (no effect) to 100 (complete control), read-out: Barnyardgrass plant response rating): 100%; pest or weed control at 31 g/ha (barnyardgrass [3]; Preemergence, 31 g ai/ha, scale 0 to 100, 0 no effect, 100 complete control, read-out: Plant response rating, Barnyardgrass): 80%; pest or weed control at 250 g/ha (sedge, umbrella): 90%; pest or weed control at 125 g/ha (waterhemp; 125 g ai/ha, postemergence, read-out: Plant response rating (0 to 100), Waterhemp): 90%; pest or weed control at 250 g/ha (waterhemp; 250 g ai/ha, postemergence, read-out: Plant response rating (0 to 100), Waterhemp): 98%; pest or weed control at 31 g/ha (waterhemp; Postemergence, 31 g ai/ha, scale 0 to 100 (0 no effect, 100 complete control), 13 to 15 days, read-out: Plant response rating, Waterhemp): 85%; pest or weed control at 62 g/ha (waterhemp; Postemergence, 62 g ai/ha, scale 0 to 100 (0 no effect, 100 complete control), read-out: Plant response rating, Waterhemp): 85%; Plant response rating, Morningglory (morningglory; [8]): 80; pest or weed control at 500 g/ha (morningglory; Ipomoea, pre-emergence, 240 h, 500 g ai/ha, 0 to 100 scale, 0 no effect, 100 complete control, approx. 10 days, read-out: Morningglory plant response rating): 100%; pest or weed control at 62 g/ha (giant foxtail; 62 g ai/ha, preemergence, scale 0 (no effect) to 100 (complete control), read-out: Foxtail, Giant plant response rating): 98%; pest or weed control at 125 g/ha (giant foxtail; 125 g ai/ha, preemergence, scale 0 (no effect) to 100 (complete control), read-out: Foxtail, Giant plant response rating): 100%; pest or weed control at 250 g/ha (giant foxtail; 250 g ai/ha, preemergence, scale 0 (no effect) to 100 (complete control), read-out: Foxtail, Giant plant response rating): 100%; pest or weed control at 31 g/ha (giant foxtail; Preemergence, 31 g ai/ha, scale 0 to 100, 0 no effect, 100 complete control, read-out: Plant response rating, Foxtail, Giant): 95%; pest or weed control at 125 g/ha (velvetleaf [4]; 125 g ai/ha, postemergence, read-out: Plant response rating (0 to 100), Velvetleaf): 55%; pest or weed control at 250 g/ha (velvetleaf [4]; 250 g ai/ha, postemergence, read-out: Plant response rating (0 to 100), Velvetleaf): 70%; pest or weed control at 31 g/ha (velvetleaf [4]; Postemergence, 31 g ai/ha, scale 0 to 100 (0 no effect, 100 complete control), 13 to 15 days, read-out: Plant response rating, Velvetleaf): 15%; pest or weed control at 62 g/ha (velvetleaf [4]; Postemergence, 62 g ai/ha, scale 0 to 100 (0 no effect, 100 complete control), read-out: Plant response rating, Velvetleaf): 30%; pest or weed control at 125 g/ha (velvetleaf [5]; 125 g ai/ha, 0 to 100 scale where 0 is no effect and 100 is complete control, read-out: Plant response rating, Velvetleaf): 100%; pest or weed control at 500 g/ha (velvetleaf [5]; 500 g ai/ha, 0 to 100 scale, 0 no effect, 100 complete control, read-out: Plant response rating Velvetleaf): 100%; pest or weed control at 125 g/ha (barnyardgrass [6]; 125 g ai/ha, postemergence, read-out: Plant response rating (0 to 100), Barnyardgrass): 10%; pest or weed control at 250 g/ha (barnyardgrass [6]; 250 g ai/ha, postemergence, read-out: Plant response rating (0 to 100), Barnyardgrass): 25%; pest or weed control at 31 g/ha (barnyardgrass [6]; Postemergence, 31 g ai/ha, scale 0 to 100 (0 no effect, 100 complete control), 13 to 15 days, read-out: Plant response rating, Barnyardgrass): 5%; pest or weed control at 62 g/ha (barnyardgrass [6]; Postemergence, 62 g ai/ha, scale 0 to 100 (0 no effect, 100 complete control), read-out: Plant response rating, Barnyardgrass): 5%; plant injury at 62 g/ha (oilseed rape [7]; 62 g ai/ha, preemergence, scale 0 (no effect) to 100 (complete control), read-out: Oilseed Rape plant response rating): 100%; plant injury at 125 g/ha (oilseed rape [7]; 125 g ai/ha, preemergence, scale 0 (no effect) to 100 (complete control), read-out: Oilseed Rape plant response rating): 100%; plant injury at 250 g/ha (oilseed rape [7]; 250 g ai/ha, preemergence, scale 0 (no effect) to 100 (complete control), read-out: Oilseed Rape plant response rating): 100%; plant injury at 31 g/ha (oilseed rape [7]; Preemergence, 31 g ai/ha, scale 0 to 100, 0 no effect, 100 complete control, read-out: Plant response rating, Oilseed Rape): 90%; Plant response rating, Wheat (wheat; [8]): 20; plant injury at 500 g/ha (wheat; Triticum aestivum, pre-emergence, 240 h, 500 g ai/ha, 0 to 100 scale, 0 no effect, 100 complete control, approx. 10 days, read-out: Wheat plant response rating): 40%; Soybean plant response rating (crop injury, 0-100 scale) at 125 g/ha (soybean; 125 g ai/ha, postemergence, read-out: Plant response rating (0 to 100), Soybean): 98%; Soybean plant response rating (crop injury, 0-100 scale) at 250 g/ha (soybean; 250 g ai/ha, postemergence): 98%; Soybean plant response rating (crop injury, 0-100 scale) at 31 g/ha (soybean; Postemergence, 31 g ai/ha, scale 0 to 100 (0 no effect, 100 complete control), 13 to 15 days): 75%; Soybean plant response rating (crop injury, 0-100 scale) at 62 g/ha (soybean; Postemergence, 62 g ai/ha, scale 0 to 100 (0 no effect, 100 complete control)): 85%
